Reference: patent US10478431B2, “Methods for treating a cytomegalovirus infection” (priority 2014, dated 2019)
Structures can show the parent of a compound that is named as a salt.

What was measured:
[1] = test system: IE2 negative feedback (MIEP-IE2-IRES-GFP construct, LM2ig); assay: IE2 negative feedback reporter: cells harboring LM2ig (MIEP-IE2-IRES-GFP), GFP by flow cytometry; format: cell-based, human CMV (hCMV); conditions: for increase in the number of GFP-positive cells: Hoechst 33342 0.25 μM, VPA concentrations as in Teng et al. (2012), cells harboring LM2ig, FIG. 6; for quiescent MIEP-driven expression in a reporter cell line: 20 μM Hoechst 33258, FACS, FIG. 4 upper panel; for production of IE2, as measured by GFP expression (GFP mean fluorescence intensity; GFP-MFI): ARPE-19 cells stably transduced with LM2ig, FIG. 1, FIG. 2
Experimental: (§1) MRCS fibroblasts and life-extended human foreskin fibroblasts (HFFs) (Bresnahan and Shenk, 2000) were maintained in Dulbecco's Modified Eagle's Medium (DMEM) supplemented with 10% fetal bovine serum (FBS) and 50 U/ml penicillin-streptomycin at 37° C. and 5% CO2 in a humidified incubator. ARPE-19 cells were maintained in a 1:1 mixture of DMEM/F-12 (Mediatech Inc.) with 10% FBS (HyClone) and 50 U/ml Penicillin-Streptomycin (Mediatech Inc.). Cells were treated with a final concentration of 1 mM valproic acid (VPA) (Calbiochem™), resuspended in dimethylsulfoxide, for approximately 24 hours before imaging. Cells were treated with a final concentration of 400 nM TSA (Sigma-Aldrich) resuspended in dimethylsulfoxide, for 20-24 hours, a final concentration of 10 ng/mL TNF-α (Sigma-Aldrich) resuspended in phosphate-buffered saline (PBS), or a final concentration of 1 mM VPA (Calbiochem) for approximately 24 hours before imaging.
(§2) Standard lentiviral cloning was used to create minimal major immediate early (MIE) circuits (Dull et al., 1998). The minimal MIEP-IE2-GFP and MIEP-GFP circuits are driven by a full-length ˜2.5 kb MIE promoter-enhancer (MIEP) that spans the sequence from the MIEP modulator at the 5′ edge to the junction of immediate early (IE) exons 1 and 2. The MIEP was polymerase chain reaction (PCR)-cloned from AD169 into pLEIGW in place of the EF1a promoter. This full-length MIEP drives an IE2-IRES-GFP or mCherry-IRES-GFP cassette. IE2 was cloned from pRSV-IE86 (a gift from Jay Nelson). ARPE-19 cells were infected and fluorescence-activated cell sorter (FACS) sorted for green fluorescent protein (GFP) fluorescence to create stably expressing cell lines. Cells were treated with Trichostatin-A (TSA) for 17 hours, and GFP expression was quantified by flow cytometry. Live cells were gated by forward-versus-side scattering on a FacsCalibur™ cytometer (BD Biosciences) and mean fluorescence intensity recorded. At least 20,000 live cells were recorded for each experiment and data was analyzed in FlowJo™ (Treestar Inc.).
See WO 2014/127148 for descriptions of MIEP-IE2-reporter constructs. For example, LM2ig construct is depicted in FIG. 7 of WO 2014/127148.

[2] = test system: IE2 negative feedback (LM2ig "low" cells); assay: LM2ig "low" drug screen (4 day induction, high throughput flow cytometry); format: cell-based, human CMV (hCMV); conditions: induction period of 4 days, FIG. 9
Experimental: LM2ig “low” cells (˜0% GFP positive before induction) were treated with agents in duplicate for an induction period of 4 days. During this induction period, the cell culture medium was not changed; images were taken every day for 4 days. On the final day, high throughput flow cytometry was carried out on FACS IntelliCyt. Agents tested were: Hoechst 33258, Hoechst 33342, VPA, TSA, TNF-α, hexamethylene bisacetamide (HMBA), phorbol myristate acetate (PMA), neotroposin, distamycin, DAPI, gemcitabine, prednisolone, suberanilohydroxamic acid (SAHA), (2E)-N-hydroxy-3-[4-({[2-(2-methyl-1H-indol-3-yl)ethyl]amino}methyl)phenyl]acrylamide (panobinostat), thapsigargin, JQ1, prostratin, dimizane acetate, pentamidine, or bendamustine.

[3] = test system: ARPE-19 cells stably transduced with LM2ig; assay: Viability of ARPE-19 cells stably transduced with LM2ig; format: cell-based; conditions: FIG. 1, FIG. 2
Experimental: as §1, §2

[4] = test system: latent CMV in N-Tera2 cells; assay: N-Tera2 latency assay (reactivation of latent CMV); format: cell-based, human CMV (hCMV); conditions: FIG. 4 lower panel
Experimental: Reactivation of latent CMV in N-Tera2 cells was conducted as previously described in (Meier, 2001).

In the case of CCOc1ccc(-c2nc3ccc(-c4nc5ccc(N6CCN(C)CC6)cc5[nH]4)cc3[nH]2)cc1 [Hoechst 33342, 2′-[4-ethoxyphenyl]-5-[4-methyl-1-piperazinyl]-2,5′-bi-1H-benzimidazole trihydrochloride trihydrate], the “percent GFP-positive cells” value ([1]; 0.25 μM Hoechst 33342, 24 hours, cells with LM2ig construct, FIG. 5) is reported as “increased”, the “breaking of the IE2 negative feedback circuit” value ([1]; 24-28 hour exposure) is reported as “breaks the IE2 negative feedback circuit” and the “reactivation of the LM2ig minimal circuit” value ([1]; Hoechst 33258: after 24 hours) is reported as “strongly reactivates”. The “increase in the number of GFP-positive cells” value [1] was 3.49 fold, the “breaking of the minimal LM2ig circuit” value ([1]; after 24 hours, alone) was “does not break” and the “breaking of the circuit and reactivation of the promoter from an off (silenced) state” value ([1]; long-term (e.g., 8-10 days) exposure) was “breaks the circuit and reactivates the promoter”. The “breaking of the IE2 negative feedback (geometric mean of GFP)” value [2] was “specifically break the IE2 negative feedback”.

With CC(/C=C/C(=O)NO)=C\[C@@H](C)C(=O)c1ccc(N(C)C)cc1 [TSA, (R,2E,4E)-7-(4-(dimethylamino)phenyl)-N-hydroxy-4,6-dimethyl-7-oxohepta-2,4-dienamide, reference compound] the “quiescent MIEP-driven expression in a reporter cell line” value ([1]; ARPE-19 cells harboring LM2ig) was “not”, the “production of IE2, as measured by GFP expression (GFP mean fluorescence intensity; GFP-MFI)” value [1] was “increased IE2 expression” and the “cell viability / cytotoxicity” value [3] was “not cytotoxic”. For the same compound, the “reactivation of latent CMV” value [4] was “not”.

In the case of CCCC(CCC)C(=O)O [VPA, valproic acid, reference compound], the “quiescent MIEP-driven expression in a reporter cell line” value ([1]; ARPE-19 cells harboring LM2ig) is reported as “not”, the “number of GFP-positive cells” value ([1]; ARPE-19 cells harboring LM2ig, Hoechst 33258 with or without VPA, FIG. 7) is reported as “induced an increase” and the “mean fluorescence intensity (MFI)” value ([1]; ARPE-19 cells harboring LM2ig, Hoechst 33258 with or without VPA, FIG. 8) is reported as “did not substantially increase MFI”. For the same compound, the “production of IE2, as measured by GFP expression (GFP mean fluorescence intensity; GFP-MFI)” value [1] was “increased IE2 expression”, the “increase in the number of GFP-positive cells” value [1] was 1.69 fold and the “cell viability / cytotoxicity” value [3] was “not cytotoxic”. The “reactivation of latent CMV” value [4] was “not”.
